Values joined by “and” are separate entries in the source; they are usually repeats but may differ in a detail not shown here. Equal values may be shown once. Read-outs that look alike come from different tables or passages of the source.
Key:
[1] = target: T1, OEP21 variants (single point mutations, ΔL5) (Pisum sativum, UniProt Q9SM57, C109A); assay: Fluorescence polarization binding of MANT-ATP to OEP21 variants; parameters: species or system garden pea; conditions: OEP21 variant C109A; for Kd: unit inferred;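 on all read-outs here: KD obtained by fitting fluorescence polarization data to a one-site binding model, each experiment run in triplicate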
T1 construct: made in house; host or cells: Escherichia coli BL21(DE3) (described for OEP21)

[2] = target: T2, OEP21 variants (single point mutations, ΔL5) (Pisum sativum, UniProt Q9SM57, K104A); assay: as above; parameters: species or system garden pea; conditions: OEP21 variant K104A; for Kd: unit inferred
T2 construct: made in house; host or cells: Escherichia coli BL21(DE3) (described for OEP21)

[3] = target: T3, OEP21 variants (single point mutations, ΔL5) (Pisum sativum, UniProt Q9SM57, R66A); assay: as above; parameters: species or system garden pea; conditions: OEP21 variant R66A; for Kd: unit inferred
T3 construct: made in house; host or cells: Escherichia coli BL21(DE3) (described for OEP21)

[4] = target: T4, OEP21 variants (single point mutations, ΔL5) (Pisum sativum, UniProt Q9SM57, R66W); assay: as above; parameters: species or system garden pea; conditions: OEP21 variant R66W; for Kd: unit inferred
T4 construct: made in house; host or cells: Escherichia coli BL21(DE3) (described for OEP21)

[5] = target: OEP21 variants (single point mutations, ΔL5); assay: as above; parameters: species or system garden pea; conditions: OEP21 variant dL5; for Kd: unit inferred
OEP21ΔL5 [6] = target: T5, OEP21ΔL5 (Pisum sativum, UniProt Q9SM57, DEL70-80); assay: NMR titrations of OEP21ΔL5 with metabolites; assay type: binding, garden pea; conditions: for Kd: KDs dLoop + GAP, dLoop (OEP21ΔL5), unit inferred
T5 construct: made in house; host or cells: Escherichia coli BL21(DE3) (described for OEP21)

OEP21ΔL5 [7] = target: T5, OEP21ΔL5; assay: FP competition with preformed MANT-ATP/OEP21ΔL5 complex; assay type: binding, garden pea
Experimental: FP assays were performed on a spectrofluorometer FP-8300 (Jasco) equipped with a water bath cooling system MCM-100 (Jasco). […] A buffer containing no EDTA was used when MgCl2 was present. […] KD values were derived by fitting the data to a one-site binding model. […] All FP experiments were performed as triplicates.

[8] = ITC of ATP, GAP or phosphate with magnesium; assay type: binding; conditions: 10 mM HEPES pH7.0, 20 mM NaCl, read-out: KD for Mg^2+
Experimental: ITC experiments were performed with a MicroCal PEAQ-ITC instrument (Malvern Panalytical) at 25 °C in 10 mM HEPES pH 7.0, 20 mM NaCl, 0.5 mM EDTA, 1 mM DTT, 50 mM LDAO. […] Curve fitting and data analysis were done with the Malvern PEAQ-ITC software.
(§1) (a) (left) 2D-[^15N,^1H]-TROSY NMR spectra of 400 µM ^2H,^15N-labeled OmpX in LDAO micelles in 20 mM sodium phosphate, pH6.0, 50 mM NaCl, 0.5 mM EDTA and the indicated concentrations of D-GAP at 30 °C and 1.2 GHz magnetic field. (right) 2D-projections along the ^1H dimension of the 2D-spectra shown on (left). […] (right) Relative NMR peak intensities derived from the data in (left) and (middle). Buffer: 10 mM Na-phosphate pH7.0, 20 mM NaCl, 7% (v/v) D2O. […] (right) 150 mM MgCl2 was titrated into 15 mM potassium phosphate (Pi). Buffer conditions for all experiments were: 10 mM HEPES pH7.0, 20 mM NaCl.

OmpX = OmpX (Escherichia coli, UniProt P0A917); assay: 2D NMR control with OmpX in LDAO micelles; parameters: species or system bacterial; conditions: up to 5 mM GAP; control for nonspecific binding
Experimental: as §1

OEP21 [9] = target: T6, OEP21 (Pisum sativum, UniProt Q9SM57); conditions: Cu^2+ oxidation then BS^3; 5 mM metabolite
OEP21 [10] = target: T6, OEP21; assay: Trypsin cleavage of recombinant OEP21 in liposomes; parameters: made in house; species or system garden pea; conditions: 10 µM OEP21 in liposomes; 5 mM metabolite
Experimental: Sample aliquots were quenched by addition of 1 mM PMSF at the indicated time points and were analyzed by SDS–PAGE.

OEP21 [11] = target: T6, OEP21; assay: Amide hydrogen exchange NMR (CLEANEX) of OEP21 L5; parameters: made in house; species or system garden pea; conditions: 2 mM ATP or 5 mM GAP; 303 K, pH 6.0
[12] = individual determinations, read-out: KD1-KD3

2′-(or-3′)-O-(N-methylanthraniloyl) adenosine 5′-triphosphate [Mant-ATP]
Kd [1, 12]: 0.19 µM and 0.22 µM and 0.213 µM
rel KD1-KD3 ([1]; relative to mean KD of wt): 1.044 and 1.209 and 1.17
Kd ([1]; read-out: mean KD): 0.208 µM
Kd [2, 12]: 0.209 µM and 0.297 µM and 0.203 µM
rel KD1-KD3 ([2]; relative to mean KD of wt): 1.148 and 1.632 and 1.115
Kd ([2]; read-out: mean KD): 0.236 µM
Kd [3, 12]: 0.214 µM and 0.195 µM and 0.19 µM
rel KD1-KD3 ([3]; relative to mean KD of wt): 1.176 and 1.071 and 1.044
Kd ([3]; read-out: mean KD): 0.2 µM
Kd [4, 12]: 0.275 µM and 0.175 µM and 0.227 µM
rel KD1-KD3 ([4]; relative to mean KD of wt): 1.511 and 1.247
Kd ([4]; read-out: mean KD): 0.226 µM
Kd [5, 12]: 0.214 µM and 0.204 µM and 0.297 µM
rel KD1-KD3 ([5]; relative to mean KD of wt): 1.176 and 1.121 and 1.632
Kd ([5]; read-out: mean KD): 0.238 µM

O=C[C@H](O)COP(=O)(O)O [GAP, D-glyceraldehyde-3-phosphate]
Kd (OEP21ΔL5 [6]; Mean, mean): 730 µM
Kd (OEP21ΔL5 [6]; individual KDs): 702 µM and 649 µM and 747 µM and 728 µM and 616 µM and 657 µM and 634 µM and 730 µM and 906 µM and 897 µM and 764 µM
effect of L5 on binding affinity (in words) (OEP21ΔL5 [6]; NMR, Fig. 3h, OEP21 versus OEP21ΔL5): approximately a fourfold increase in binding affinity
IC50 (OEP21ΔL5 [7]; IC50 (dissociation of MANT-ATP), OEP21ΔL5, 1 µM MANT-ATP, 1 µM protein): ~26000 µM
IC50 (OEP21ΔL5 [7]; dL5, individual determinations, read-out: IC50): 31100 µM and 20400 µM
IC50 (OEP21ΔL5 [7]; dL5, read-out: mean IC50): 25700 µM
Kd [8]: ~9000 µM and 9000 µM
effect on 2D-NMR spectra of OmpX (in words) (OmpX): did not observe any effect
effect on enhanced oligomerization of Cys109-oxidized OEP21 (in words) (OEP21 [9]): reduced this process
effect on trypsin digestion of L5 (in words) (OEP21 [10]): slightly protected L5 from proteolytic digestion
amide hydrogen exchange rates in L5 in the complex (in words) (OEP21 [11]): reduced
